# Source: patent US20080226718A1, “Indole and Azaindole Derivatives For the Treatment of Inflammatory and Autoimmune Diseases” (Brane Discovery S.r.l, priority 2005, published 2008)
# Values joined by “and” are separate entries in the source; they are usually repeats but may differ in a detail not shown here. Equal values may be shown once. Read-outs that look alike come from different tables or passages of the source.
# Legend:
# [1] = system: experimental autoimmune encephalomyelitis (EAE); format: in vivo; details: therapeutic
# Protocol: (§1) Female SJL/J mice, 6-8 weeks of age, were obtained from Harlan-Nossan Italy. Mice were immunized s.c. with 200 μg PLP139-151 in 0.1 ml emulsion consisting of equal volumes of PBS and CFA (Difco Laboratories, Detroit, Mich.) and containing 6 mg/ml of Mycobacterium tuberculosis H37Ra (Difco). To induce a severe disease, in some experiments 400 ng Pertussis toxin (PTX) was administered i.v. at days 0 and 2 (Constantin, G. et al. Eur. J. Immunol., 28, 3523-3529, 1998). Mice were scored for EAE according to the following scale: 0, no disease; 1, tail weakness; 2, paraparesis; 3, paraplegia; 4, paraplegia with forelimb weakness or paralysis; 5, moribund or dead animals (Brocke S. et al., Autoimmune disease models. Academic Press, San Diego, 1-4, 1994).
# (§2) The effects of compound of Example 1 (PCT/EP2005/051908) were determined on EAE (experimental autoimmune encephalomyelitis), the animal model of multiple sclerosis (Tables 4 and 5). SJL mice were immunized with PLP139-151 peptide from cerebral proteolipid. The disease model has relapses and remission periods, as described in relapsing-remitting MS, the most frequent form of human disease accounting for 85% of all MS patients.
# In the therapeutic model (Table 5), mice received 70 mg/kg of Compound of Example 1 (PCT/EP2005/051908), daily, intraperitoneally, for 11 days starting from the day of clinical onset. The treated mice also received 4 doses intravenously (i.v.) of 10 mg/kg each. Control animals received vehicle (DMSO). Control animals developed disease with a mean day of onset of 13.8±3, while treated mice developed EAE at 13.5±2 days postimmunization. Mean (±S.E.M.) maximum clinical score in control animals was 1.75±0.6.
# [2] = system: experimental autoimmune encephalomyelitis (EAE); assay: EAE, preventive model; format: in vivo
# Protocol: as §1
# Test compound was administered daily at 60 mg/kg i.p. for 17 days starting from the day of immunization. Control animals received vehicle (DMSO).
# as §2
# In the preventive model (Table 4), mice received 60 mg/kg daily of Compound of Example 1 (PCT/EP2005/051908), intraperitoneally, for 17 days starting from the day of immunization. Control animals received vehicle (DMSO). Control animals developed disease with a mean day of onset of 13±1.5. Mean maximum clinical score in control animals was 2.7±0.3. All control mice that developed disease also presented clinical relapses.
# [3] = preventive, 60 mg/kg i.p. daily for 17 days from immunization
compound,measurement,setting,value
COC(=O)c1[nH]c2cc(OC)c(OC)cc2c1-c1ccc(OC)cc1 [Example 1],Mortality,[1]; 70 mg/kg i.p. daily for 11 days from clinical onset plus 4 i.v. doses of 10 mg/kg,0/6
same,Mean maximum clinical score,"[1]; 70 mg/kg i.p. daily for 11 days from clinical onset plus 4 i.v. doses of 10 mg/kg, scale 0-5, ±S.E.M.",0.89 ± 0.23
same,Inhibition of mean maximum clinical score,[1]; P<0.01,50%
same,Mean day of onset,[1]; treatment started at clinical onset,13.5±2 days postimmunization and 13.5 ± 2.0 days postimmunization
same,"Visible toxicity (appearance of animals, macroscopic pathological analysis)",[2]; 60 mg/kg i.p. daily for 17 days,neither the treatment caused any visible toxicity
same,"Development of clinical signs of disease, in words","[2]; preventive, 60 mg/kg i.p. daily for 17 days",completely blocked
same,Disease incidence,[2]; [3],0/6
same,Mortality,[2]; [3],0/6
same,Mean maximum clinical score,"[2]; preventive, 60 mg/kg i.p. daily for 17 days from immunization, scale 0-5",0
same,Clinical relapses,"[2]; preventive, observation period of 61 days",no treated animals developed clinical relapses
